Laboratory results taken from patent US20250333407A1, “Compounds and Their Use for Treatment of Hemoglobinopathies” (Bristol-Myers Squibb Company, priority 2024, published 2025).

How the values were obtained:
Assay type in all cases: cell-based
[1] = target: T1, WIZ (Homo sapiens, UniProt O95785+Q96SW2); experiment: HUDEP-2 WIZ HiBiT degradation assay; settings: HiBiT-tagged WIZ degradation in HUDEP-2 cells, 24 hours of treatment; read-out: WIZ EC50
T1 construct: HUDEP-2 cells engineered to express a HiBiT tag in either the WIZ (Widely interspaced zinc finger) or ZBTB7A
Procedure: (§1) WIZ Assay and ZBTB7A EC50 Assays. The HiBiT degradation assays for WIZ and ZBTB7A in HUDEP-2 cells were performed as described below. HUDEP-2 cells engineered to express a HiBiT tag in either the WIZ (Widely interspaced zinc finger) or ZBTB7A (Zinc Finger And BTB Domain Containing 7A) proteins were maintained in low attachment flasks in StemSpan SFEM II media supplemented with Penicillin-Streptomycin (50 U/mL), rhSCF (50 ng/mL), rhEPO (3 IU/mL), dexamethasone (0.4 μg/mL) and doxycycline (1 μg/mL). Prior to start of the assay, cell count and viability were measured by trypan blue exclusion using the Vi-cell XR cell viability analyzer.
For the HUDEP-2 WIZ HiBiT assay, cells were transferred to a 50 mL conical and centrifuged at 500 g for five minutes. Cells were resuspended in fresh StemSpan SFEM II media supplemented with Penicillin-Streptomycin (50 U/mL), rhSCF (50 ng/mL), rhEPO (3 IU/mL), dexamethasone (0.4 μg/mL) and doxycycline (1 μg/mL) at a density of 1.0×10^6 cells/ml. Forty microliters of cell suspension was dispensed into 384-well Low Flange White Flat Bottom Polystyrene TC-treated Microplates containing pre-dispensed compounds, using a VIAFLO 384 liquid hander, and placed in a 37° C. incubator with 5% CO2. […] After 24 hours of treatment, 40 μL Nano-Glo HiBiT Lytic Detection System reagent was dispensed into each well using a VIAFLO 384 liquid hander. Plates were incubated for 25 minutes at room temperature and the luminescence was read as relative luminescent units using the EnVision plate reader. EC50 and Y-min values were calculated using curves calculated from dotmatics software after the normalization to the DMSO control of 10 different concentrations: 10, 3.33, 1.11, 0.37, 0.12, 0.04 0.0137, 0.0046, 0.0015 and […] respectively.

[2] = test system: HbF; experiment: HbF HiBiT induction assay in HUDEP-2 cells; settings: HUDEP-2 cells with HiBiT tag in HBG1/2, 72 hours of treatment; area under the dose response curve, higher AUC = greater HbF induction
Procedure: HbF HiBiT induction assay. The HiBiT induction assay for HbF in HUDEP-2 cells was performed as described below. HUDEP-2 cells engineered to express a HiBiT tag in HBG1/2 were maintained at a density of 0.1-1×10^6 cells/ml in StemSpan SFEM II supplemented with 1% penicillin/streptomycin, hSCF (50 ng/mL), erythropoietin (EPO; 3 IU/mL), dexamethasone (DEX; 0.4 μg/mL), and doxycycline hyclate (DOX; 1 μg/mL). The cells were cultured in low adherence flasks, in a humidified incubator, set at 37° C. with 5% CO2. Cell counts and viability were measured by trypan blue exclusion using the Vi-CELL XR cell viability analyzer and the cell growth was consistently maintained in log phase.
Prior to the start of experiments, HbF HiBiT-tagged HUDEP-2 cells were transferred to a 50 mL conical and centrifuged at 500×g for 5 minutes, the supernatant removed, and the pellet washed in 5 mL of 1×PBS. The washed cells were centrifuged again at 500×g for 5 minutes and resuspended in IMDM containing; 1×glutamine, 1×penicillin/streptomycin, holo-transferrin (330 μg/mL), heparin (2 IU/mL), r-human insulin (10 μg/mL), EPO (3 IU/mL), 5% human plasma, hSCF (100 ng/mL) and DOX (1 μg/mL) to a final density of 0.3×10^6 cells/mL. Forty microliters of cell suspension were dispensed into 384-well Low Flange White Flat Bottom Polystyrene TC-treated Microplates containing pre-dispensed compounds, using a VIAFLO 384 liquid hander, and placed in a humidified incubator at 37° C. with 5% CO2. […] After 72 hours of treatment, 40 μL of Nano-Glo HiBiT Lytic Solution (prepared according to manufacturer's instructions) were dispensed into each well using a VIAFLO 384 liquid handler, and the plates were shaken for 20 seconds. Plates were incubated for 20 minutes at room temperature, and the luminescence was read as relative luminescent units using an EnVision plate reader.
Dose response curves were generated, and EC50, Ymax, and then area under the curve (AUC) values were calculated. HbF induction was measured using the calculated area under the curve (AUC) value, with higher AUC values indicative of greater HbF induction relative to lower AUC values.

[3] = target: T2, ZBTB7A (Homo sapiens, UniProt O95365+Q96SW2); experiment: HUDEP-2 ZBTB7A HiBiT degradation assay; settings: HiBiT-tagged ZBTB7A degradation in HUDEP-2 cells, 24 hours of treatment; read-out: ZBTB7A EC50
T2 construct: HUDEP-2 cells engineered to express a HiBiT tag in either the WIZ (Widely interspaced zinc finger) or ZBTB7A
Procedure: as §1
For the HUDEP-2 ZBTB7A HiBiT assay, cell count and viability were measured by trypan blue exclusion using the Vi-cell XR cell viability analyzer and the cells were transferred to a 50 mL conical and centrifuged at 500 g for five minutes. Cells were resuspended in fresh IMDM media supplemented with L-Glutamine (1×), Penicillin-Streptomycin (50 U/mL), holo-transferrin (330 μg/mL), heparin (2 IU/mL), r-human Insulin (10 μg/mL), rhEPO (3 IU/mL), rhSCF (100 ng/mL)+Dox (1 μg/mL) and 5% human plasma in low attachment flasks, which were placed in a 37° C. incubator with 5% CO2. After 48 hours, cell count and viability were measured by trypan blue exclusion using the Vi-cell XR cell viability analyzer. The HUDEP-2 ZBTB7A cells were transferred to a 50 mL conical, centrifuged at 500 g for five minutes and resuspended at a density of 1.0×10^6 cells/ml in IMDM media supplemented with L-Glutamine (1×), Penicillin-Streptomycin (50 U/mL), holo-transferrin (330 μg/mL), heparin (2 IU/mL), r-human Insulin (10 μg/mL), rhEPO (3 IU/mL), rhSCF (100 ng/mL)+Dox (1 μg/mL) and 5% human plasma. Forty microliters of cell suspension was dispensed into 384-well Low Flange White Flat Bottom Polystyrene TC-treated Microplates containing pre-dispensed compounds, using a VIAFLO 384 liquid hander, and placed in a 37° C. incubator with 5% CO2. […] After 24 hours of treatment, 40 μL Nano-Glo HiBiT Lytic Detection System reagent was dispensed into each well using a VIAFLO 384 liquid hander. Plates were incubated for 25 minutes at room temperature and the luminescence was read as relative luminescent units using the EnVision plate reader. EC50 and Y-min values were calculated using curves calculated from dotmatics software after the normalization to the DMSO control of 10 different concentrations: 10, 3.33, 1.11, 0.37, 0.12, 0.04 0.0137, 0.0046, 0.0015 and […] respectively.

T2 sequence (O95365 whole entry): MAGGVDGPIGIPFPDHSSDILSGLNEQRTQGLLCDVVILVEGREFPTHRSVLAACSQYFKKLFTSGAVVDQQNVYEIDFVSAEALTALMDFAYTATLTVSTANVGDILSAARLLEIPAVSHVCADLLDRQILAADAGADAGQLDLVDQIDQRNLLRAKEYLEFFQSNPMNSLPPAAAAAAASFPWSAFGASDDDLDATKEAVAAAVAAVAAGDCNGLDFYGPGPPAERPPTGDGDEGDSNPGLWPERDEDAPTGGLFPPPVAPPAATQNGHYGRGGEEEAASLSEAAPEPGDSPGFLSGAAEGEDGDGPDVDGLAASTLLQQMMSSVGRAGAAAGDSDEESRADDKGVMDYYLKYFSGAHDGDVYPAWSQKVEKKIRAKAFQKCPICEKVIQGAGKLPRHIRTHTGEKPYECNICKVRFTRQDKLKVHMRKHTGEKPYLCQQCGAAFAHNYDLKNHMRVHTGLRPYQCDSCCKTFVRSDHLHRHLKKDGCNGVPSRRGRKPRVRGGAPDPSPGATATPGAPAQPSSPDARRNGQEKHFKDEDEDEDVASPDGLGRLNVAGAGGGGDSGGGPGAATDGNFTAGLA
T2 sequence (Q96SW2 whole entry): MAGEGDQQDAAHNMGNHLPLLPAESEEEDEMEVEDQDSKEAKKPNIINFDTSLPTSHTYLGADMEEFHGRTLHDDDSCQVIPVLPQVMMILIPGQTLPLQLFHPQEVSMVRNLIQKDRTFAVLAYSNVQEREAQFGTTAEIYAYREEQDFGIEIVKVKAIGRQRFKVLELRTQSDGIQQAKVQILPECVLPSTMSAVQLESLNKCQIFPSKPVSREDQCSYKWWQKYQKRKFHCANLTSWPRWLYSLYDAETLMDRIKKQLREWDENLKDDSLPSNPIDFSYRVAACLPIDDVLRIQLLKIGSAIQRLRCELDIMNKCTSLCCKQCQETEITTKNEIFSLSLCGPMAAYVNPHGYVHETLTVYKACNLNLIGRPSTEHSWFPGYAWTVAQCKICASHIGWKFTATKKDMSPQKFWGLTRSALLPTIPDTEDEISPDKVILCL
T2 sequence (Q16531 whole entry partner): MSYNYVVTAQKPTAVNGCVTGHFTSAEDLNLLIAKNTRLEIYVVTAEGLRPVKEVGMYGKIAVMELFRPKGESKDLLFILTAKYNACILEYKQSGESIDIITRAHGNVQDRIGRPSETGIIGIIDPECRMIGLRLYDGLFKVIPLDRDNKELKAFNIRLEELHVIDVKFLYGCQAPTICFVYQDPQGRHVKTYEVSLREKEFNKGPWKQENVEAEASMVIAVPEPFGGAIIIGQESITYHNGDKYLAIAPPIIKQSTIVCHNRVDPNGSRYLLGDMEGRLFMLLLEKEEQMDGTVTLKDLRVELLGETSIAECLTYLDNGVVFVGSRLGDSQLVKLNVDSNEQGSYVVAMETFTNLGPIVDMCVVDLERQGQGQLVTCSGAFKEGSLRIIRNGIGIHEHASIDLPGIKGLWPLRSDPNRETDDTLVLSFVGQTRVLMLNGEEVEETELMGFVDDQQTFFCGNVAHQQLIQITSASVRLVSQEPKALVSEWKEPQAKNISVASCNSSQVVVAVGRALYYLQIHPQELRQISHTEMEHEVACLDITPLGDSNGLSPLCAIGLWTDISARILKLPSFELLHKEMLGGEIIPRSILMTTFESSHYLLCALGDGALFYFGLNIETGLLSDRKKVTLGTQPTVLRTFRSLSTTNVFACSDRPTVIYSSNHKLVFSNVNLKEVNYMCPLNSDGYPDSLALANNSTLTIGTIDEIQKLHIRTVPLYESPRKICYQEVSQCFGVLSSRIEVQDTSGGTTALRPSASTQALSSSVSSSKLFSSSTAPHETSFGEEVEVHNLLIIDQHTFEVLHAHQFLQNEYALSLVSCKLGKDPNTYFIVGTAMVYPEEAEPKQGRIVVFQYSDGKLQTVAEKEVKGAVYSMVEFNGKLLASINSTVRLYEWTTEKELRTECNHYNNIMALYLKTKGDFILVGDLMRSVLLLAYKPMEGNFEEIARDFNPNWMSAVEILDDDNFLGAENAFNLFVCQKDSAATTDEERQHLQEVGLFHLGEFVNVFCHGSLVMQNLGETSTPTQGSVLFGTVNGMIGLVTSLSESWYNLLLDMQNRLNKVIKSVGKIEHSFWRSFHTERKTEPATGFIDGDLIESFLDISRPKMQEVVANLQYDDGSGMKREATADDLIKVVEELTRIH
T1 sequence (O95785 whole entry): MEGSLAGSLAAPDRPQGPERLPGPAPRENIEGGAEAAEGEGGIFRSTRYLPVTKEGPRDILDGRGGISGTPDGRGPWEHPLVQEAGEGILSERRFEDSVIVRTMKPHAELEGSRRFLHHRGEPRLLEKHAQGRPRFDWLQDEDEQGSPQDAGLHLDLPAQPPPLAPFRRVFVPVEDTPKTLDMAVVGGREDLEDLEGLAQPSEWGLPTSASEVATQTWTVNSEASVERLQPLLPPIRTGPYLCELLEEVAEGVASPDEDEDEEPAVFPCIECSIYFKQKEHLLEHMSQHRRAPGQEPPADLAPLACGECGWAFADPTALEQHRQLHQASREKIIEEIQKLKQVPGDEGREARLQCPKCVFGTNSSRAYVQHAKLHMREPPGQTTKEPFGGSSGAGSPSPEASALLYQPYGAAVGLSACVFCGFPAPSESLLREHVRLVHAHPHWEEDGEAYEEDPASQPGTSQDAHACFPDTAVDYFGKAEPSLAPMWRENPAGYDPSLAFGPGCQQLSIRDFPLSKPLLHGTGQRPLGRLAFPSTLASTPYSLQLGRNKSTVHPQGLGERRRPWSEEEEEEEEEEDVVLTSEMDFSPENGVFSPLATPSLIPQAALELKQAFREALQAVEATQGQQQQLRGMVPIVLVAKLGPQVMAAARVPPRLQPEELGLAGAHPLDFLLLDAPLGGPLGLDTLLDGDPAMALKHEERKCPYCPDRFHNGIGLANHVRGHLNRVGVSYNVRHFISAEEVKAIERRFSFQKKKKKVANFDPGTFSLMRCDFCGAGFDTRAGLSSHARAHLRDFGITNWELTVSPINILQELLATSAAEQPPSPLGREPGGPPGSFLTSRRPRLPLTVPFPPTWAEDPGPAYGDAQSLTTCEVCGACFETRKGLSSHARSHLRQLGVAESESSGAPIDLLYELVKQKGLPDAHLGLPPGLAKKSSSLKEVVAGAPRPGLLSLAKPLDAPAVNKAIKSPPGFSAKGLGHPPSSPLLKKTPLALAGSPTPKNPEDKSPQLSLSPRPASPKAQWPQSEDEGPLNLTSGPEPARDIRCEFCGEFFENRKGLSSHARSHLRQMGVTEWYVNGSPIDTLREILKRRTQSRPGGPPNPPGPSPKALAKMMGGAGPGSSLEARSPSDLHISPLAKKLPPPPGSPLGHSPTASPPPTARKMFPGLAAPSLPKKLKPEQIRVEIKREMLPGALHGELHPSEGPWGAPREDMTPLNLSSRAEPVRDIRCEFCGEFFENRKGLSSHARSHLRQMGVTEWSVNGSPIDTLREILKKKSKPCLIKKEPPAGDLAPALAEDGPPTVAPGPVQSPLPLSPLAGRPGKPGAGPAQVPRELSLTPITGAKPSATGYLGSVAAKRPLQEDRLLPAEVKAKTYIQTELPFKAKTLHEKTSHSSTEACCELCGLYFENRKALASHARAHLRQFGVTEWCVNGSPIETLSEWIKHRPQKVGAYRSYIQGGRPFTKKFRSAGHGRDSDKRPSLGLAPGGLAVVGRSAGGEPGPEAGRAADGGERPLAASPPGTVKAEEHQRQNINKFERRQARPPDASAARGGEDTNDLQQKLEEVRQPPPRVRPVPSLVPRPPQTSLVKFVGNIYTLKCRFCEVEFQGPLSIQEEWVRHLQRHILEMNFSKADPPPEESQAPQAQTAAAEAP
T1 sequence (Q96SW2 whole entry): as the sequence (Q96SW2 whole entry) above
T1 sequence (Q16531 whole entry partner): as the sequence (Q16531 whole entry partner) above

| SMILES | DC50 [1] [nM] | DC50 [3] [nM] | HBF AUC [2] |
| --- | --- | --- | --- |
| Cc1cc(-c2cc3c(cc2Nc2cccc4c2C(=O)N([C@H]2CCC(=O)NC2=O)C4=O)N(C)C(=O)[C@@H](C)O3)cc(C)n1 [Compound 24, 4-(((R)-7-(2,6-dimethylpyridin-4-yl)-2,4-dimethyl-3-oxo-3,4-dihydro-2H-benzo[b][1,4]oxazin-6-yl)amino)-2-((S)-2,6-dioxopiperidin-3-yl)isoindoline-1,3-dione] | 14 | 26 | +++ (+++ = AUC ≥ 150) |
| CCN1C(=O)COc2cc(-c3ccnc(C)c3)c(Nc3cccc4c3C(=O)N([C@H]3CCC(=O)NC3=O)C4=O)cc21 [Compound 25, (S)-2-(2,6-dioxopiperidin-3-yl)-4-((4-ethyl-7-(2-methylpyridin-4-yl)-3-oxo-3,4-dihydro-2H-benzo[b][1,4]oxazin-6-yl)amino)isoindoline-1,3-dione] | 18 | 24 | + (+ = 15 ≤ AUC < 100) |
| Cc1cc(-c2cc3c(cc2Nc2cccc4c2C(=O)N([C@H]2CCC(=O)NC2=O)C4=O)N(C2CC2)C(=O)CO3)ccn1 [Compound 26, (S)-4-((4-cyclopropyl-7-(2-methylpyridin-4-yl)-3-oxo-3,4-dihydro-2H-benzo[b][1,4]oxazin-6-yl)amino)-2-(2,6-dioxopiperidin-3-yl)isoindoline-1,3-dione] | 13 | 98 | ++ (++ = 100 ≤ AUC < 150) |
| Cc1cc(-c2cc3c(cc2Nc2cccc4c2C(=O)N([C@H]2CCC(=O)NC2=O)C4=O)N(C)C(=O)[C@@H](C)O3)c(F)cn1 [Compound 27, 2-((S)-2,6-dioxopiperidin-3-yl)-4-(((R)-7-(5-fluoro-2-methylpyridin-4-yl)-2,4-dimethyl-3-oxo-3,4-dihydro-2H-benzo[b][1,4]oxazin-6-yl)amino)isoindoline-1,3-dione] | 6 | 11 | + (+ = 15 ≤ AUC < 100) |
| COc1cc(-c2cc3c(cc2Nc2cccc4c2C(=O)N([C@H]2CCC(=O)NC2=O)C4=O)N(C)C(=O)CO3)c(F)cn1 [Compound 28, (S)-2-(2,6-dioxopiperidin-3-yl)-4-((7-(5-fluoro-2-methoxypyridin-4-yl)-4-methyl-3-oxo-3,4-dihydro-2H-benzo[b][1,4]oxazin-6-yl)amino)isoindoline-1,3-dione] | 11 | 13 | +++ (+++ = AUC ≥ 150) |
| COc1cc(-c2cc3c(cc2Nc2cccc4c2C(=O)N([C@H]2CCC(=O)NC2=O)C4=O)N(C)C(=O)[C@H](C)O3)c(F)cn1 [Compound 29, 2-((S)-2,6-dioxopiperidin-3-yl)-4-(((S)-7-(5-fluoro-2-methoxypyridin-4-yl)-2,4-dimethyl-3-oxo-3,4-dihydro-2H-benzo[b][1,4]oxazin-6-yl)amino)isoindoline-1,3-dione] | 5 | 23 | + (+ = 15 ≤ AUC < 100) |
| COc1cc(-c2cc3c(cc2Nc2cccc4c2C(=O)N([C@H]2CCC(=O)NC2=O)C4=O)N(C)C(=O)[C@@H](C)O3)c(F)cn1 [Compound 30, 2-((S)-2,6-dioxopiperidin-3-yl)-4-(((R)-7-(5-fluoro-2-methoxypyridin-4-yl)-2,4-dimethyl-3-oxo-3,4-dihydro-2H-benzo[b][1,4]oxazin-6-yl)amino)isoindoline-1,3-dione] | 11 | 19 | ++ (++ = 100 ≤ AUC < 150) |

Second part, led by results:

| DC50 [1] [nM] | DC50 [3] [nM] | SMILES | HBF AUC [2] |
| --- | --- | --- | --- |
| 6 | 35 | CC(=O)N1CCC(c2cc3c(cc2Nc2cccc4c2C(=O)N([C@H]2CCC(=O)NC2=O)C4=O)N(C)C(=O)[C@H](C)O3)CC1 [Compound 31, 4-(((S)-7-(1-acetylpiperidin-4-yl)-2,4-dimethyl-3-oxo-3,4-dihydro-2H-benzo[b][1,4]oxazin-6-yl)amino)-2-((S)-2,6-dioxopiperidin-3-yl)isoindoline-1,3-dione] | +++ (+++ = AUC ≥ 150) |
| 5 | 14 | CC(=O)N1CCC(c2cc3c(cc2Nc2cccc4c2C(=O)N([C@H]2CCC(=O)NC2=O)C4=O)N(C)C(=O)[C@@H](C)O3)CC1 [Compound 32, 4-(((R)-7-(1-acetylpiperidin-4-yl)-2,4-dimethyl-3-oxo-3,4-dihydro-2H-benzo[b][1,4]oxazin-6-yl)amino)-2-((S)-2,6-dioxopiperidin-3-yl)isoindoline-1,3-dione] | +++ (+++ = AUC ≥ 150) |
| 21 | 24 | COc1cc(-c2cc3c(cc2Nc2cccc4c2C(=O)N([C@H]2CCC(=O)NC2=O)C4=O)N(C)C(=O)[C@@H](C)O3)ccn1 [Compound 33, 2-((S)-2,6-dioxopiperidin-3-yl)-4-(((R)-7-(2-methoxypyridin-4-yl)-2,4-dimethyl-3-oxo-3,4-dihydro-2H-benzo[b][1,4]oxazin-6-yl)amino)isoindoline-1,3-dione] | + (+ = 15 ≤ AUC < 100) |
| 11 | 11 | COc1nccc(-c2cc3c(cc2Nc2cccc4c2C(=O)N([C@H]2CCC(=O)NC2=O)C4=O)N(C)C(=O)CO3)c1F [Compound 34, (S)-2-(2,6-dioxopiperidin-3-yl)-4-((7-(3-fluoro-2-methoxypyridin-4-yl)-4-methyl-3-oxo-3,4-dihydro-2H-benzo[b][1,4]oxazin-6-yl)amino)isoindoline-1,3-dione] | +++ (+++ = AUC ≥ 150) |
